# Experimental data from article PMC12257394, “Design, Synthesis, and Biological Evaluation of Ferrocenyl–Cyclo-(Gly‑L‑Pro) Hybrids Sensitizing Multidrug-Resistant Cancer Cells to Anticancer Agents” (ACS Medicinal Chemistry Letters, 2025).
# pIC50: −log10 of the molar value.
# Experiments:
# Assay type in all cases: cell-based, human
# [1] = test system: ABCB1-overexpressing SW620D cells; assay: MDR reversal assay (ERP), SW620D; settings: for ERP value, doxorubicin + compound: SW620D (xlsx); for ERP = IC50(drug)MDR/IC50(drug+4)MDR: doxorubicin, SW620D
# Source text: (§1) We investigated the potency of 4a–e to inhibit ABC transporters (ABCB1, ABCC1, and ABCG2) by determining their enhancement of reversal potency (ERP) values. ERP represents fold changes in the IC50 values of anticancer drugs in multidrug-resistant cancer sublines (ABCB1-overexpressing SW620D, SW620E, and SW620V; ABCC1-overexpressing SW620M; ABCG2-overexpressing SW620C and SW620Mito) exposed to a combination of the investigated compounds and anticancer agents at equimolar concentrations, compared with values obtained with drugs alone (Tables S2 and S3 and Figure ).
# (§2) Standards. Multidrug-resistant variants of SW620 cells were developed in our laboratory as described previously.10, 11 All cells were cultured under standard conditions (37°C, 5% CO2, 100% humidity) in high-glucose DMEM supplemented with GlutaMaxTM, HEPES (ThermoFisher Scientific, USA), and 10% fetal bovine serum (EURx, Poland). Cells were routinely tested for potential Mycoplasma contamination using the MycoProbe Mycoplasma Detection kit (R&D System, USA).
# (§3) In total, 104 cells in 100 µL of complete medium were plated per well of a 96-well plate and left overnight to allow cells to adhere to the surface. Then, the cells were exposed to a desired concentration of tested compound(s). Stock solutions were prepared in DMSO and used immediately. The final DMSO concentration was constant and nontoxic (0.1% v/v). After 70-h incubation, neutral red was added to the final concentration of 1 mM. After another 2 h, the medium was aspirated, and cells were washed twice with PBS. Dye was released using 100 µL of a solubilizer (1% acetic acid in 50% ethanol) on an orbital shaker (10 min). Absorbance was read at 540 nm using EnVision Multilabel Plate Reader (Perkin Elmer, USA). Results were expressed as % of control. The IC50 parameters were calculated using GraphPad Prism version 10 (GraphPad Software, Boston, Massachusetts USA).
# (§4) The enhancement of reversal potency (ERP) value determination
# (§5) For MDR reversal assays, cytotoxic agents were co-administered with compounds 4a–4e at equimolar concentrations in a range of 10 nM to 100 µM. IC₅₀ values were determined in ABCB1-overexpressing SW620 cell line variants. The enhancement of reversal potency (ERP) was calculated using the following formula: ERP = IC₅₀(drug)MDR / IC₅₀(drug + compound)MDR. All experiments were performed in triplicate (n = 3).
# MRC-5 fibroblasts = assay: Neutral red uptake viability assay, MRC-5; settings: for survival rate: MRC-5, 10 μM, 72 h exposure, n = 3, ± SD
# Experimental: (§6) The normal lung fibroblast MRC-5 and colorectal adenocarcinoma SW620 cell lines used in this experiment were purchased from American Type Culture Collection (USA) via LGC […]
# as §2
# as §3, with “Massachusetts USA). […]” for “Massachusetts USA).”
# (§7) All experiments were performed in triplicate (n = 3).
# SW620 cells = assay: Neutral red uptake viability assay, SW620; settings: for survival rate: 72 h, n = 3, ± SD; for pIC50: SW620, 72 h, n = 3, read-out: Cytotoxic activity IC50 (95% CI)
# Experimental: (§8) To evaluate this aspect, we investigated the viability of SW620 colon cancer cells and their multidrug-resistant variants (overexpressing ABCB1, ABCC1, and ABCG2) exposed to 1 and 10 μM 4a–e using a neutral red uptake assay (Table ). In general, compounds 4a–e exerted little or no cytotoxic effect on either SW620 or multidrug-resistant sublines even at 10 μM, with the remarkable exception of SW620C (cisplatin-selected variant of SW620) cells, which turned out to be relatively susceptible toward ferrocenyl 4a–c. […] This trend may reflect steric or electronic contributions to cellular uptake or interaction with intracellular targets. […] However, since E/Z isomeric data are currently available only for compound 4c, this hypothesis requires validation. To quantify this effect, IC50 values were determined (Table ). […]
# as §6, §2
# as §3, with “Massachusetts USA). […]” for “Massachusetts USA).”
# as §7
# [2] = test system: ABCC1-overexpressing SW620M cells; assay: MDR reversal assay (ERP), SW620M; settings: for ERP value, methotrexate + compound: SW620M (xlsx); for ERP = IC50(drug)MDR/IC50(drug+4)MDR: methotrexate, SW620M
# Source text: as §1, §2, §3, §4, §5
# [3] = test system: SW620E cells (etoposide-resistant); assay: Neutral red uptake viability assay, SW620E; settings: 72 h; for survival rate: n = 3, ± SD; for pIC50: n = 3, read-out: Cytotoxic activity IC50 (95% CI)
# Experimental: as §8, §6, §2
# as §3, with “Massachusetts USA). […]” for “Massachusetts USA).”
# as §7
# [4] = test system: ABCG2-overexpressing SW620C cells; assay: MDR reversal assay (ERP), SW620C; settings: for ERP value, cisplatin + compound: SW620C (xlsx); for ERP = IC50(drug)MDR/IC50(drug+4)MDR: cisplatin, SW620C
# Source text: as §1, §2, §3, §4, §5
# [5] = test system: SW620M cells (methotrexate-resistant); assay: Neutral red uptake viability assay, SW620M; settings: 72 h; for survival rate: n = 3, ± SD; for pIC50: n = 3, read-out: Cytotoxic activity IC50 (95% CI)
# Experimental: In general, compounds 4a–e exerted little or no cytotoxic effect on either SW620 or multidrug-resistant sublines even at 10 μM, with the remarkable exception of SW620C (cisplatin-selected variant of SW620) cells, which turned out to be relatively susceptible toward ferrocenyl 4a–c. […] This trend may reflect steric or electronic contributions to cellular uptake or interaction with intracellular targets. […] However, since E/Z isomeric data are currently available only for compound 4c, this hypothesis requires validation. To quantify this effect, IC50 values were determined (Table ). […]
# as §6, §2
# as §3, with “Massachusetts USA). […]” for “Massachusetts USA).”
# as §7
# [6] = test system: ABCG2-overexpressing SW620Mito cells; assay: MDR reversal assay (ERP), SW620Mito; settings: for ERP value, mitoxantrone + compound: SW620Mito (xlsx); for ERP = IC50(drug)MDR/IC50(drug+4)MDR: mitoxantrone, SW620Mito
# Source text: as §1, §2, §3, §4, §5
# [7] = test system: ABCB1-overexpressing SW620E cells; assay: MDR reversal assay (ERP), SW620E; settings: for ERP value, etoposide + compound: SW620E (xlsx); for ERP = IC50(drug)MDR/IC50(drug+4)MDR: etoposide, SW620E
# Source text: as §1, §2, §3, §4, §5
smiles,measurement,setting,value
"O=C1N/C(=C/c2cccc(-[c-]3cccc3)c2)C(=O)N2CCC[C@@H]12.[Fe+2].c1cc[cH-]c1 [(S,E)-4c]","ERP value, doxorubicin + compound",[1],0.77
same,ERP = IC50(drug)MDR/IC50(drug+4)MDR,[1],0.77
same,survival rate,MRC-5 fibroblasts,110 ± 10%
same,survival rate,"SW620 cells; SW620, 1 μM",95 ± 3.4%
same,survival rate,"SW620 cells; SW620, 10 μM",95 ± 6.0%
same,pIC50,SW620 cells,< 4.00
same,"ERP value, methotrexate + compound",[2],1.16
same,ERP = IC50(drug)MDR/IC50(drug+4)MDR,[2],1.16
same,survival rate,[3]; 1 μM,95 ± 2.1%
same,survival rate,[3]; 10 μM,91 ± 0.8%
same,pIC50,[3],< 4.00
same,"ERP value, cisplatin + compound",[4],3.45
same,survival rate,[5]; 1 μM,93 ± 1.8%
same,survival rate,[5]; 10 μM,96 ± 4.6%
same,pIC50,[5],< 4.00
same,"ERP value, mitoxantrone + compound",[6],0.87
same,ERP = IC50(drug)MDR/IC50(drug+4)MDR,[6],0.87
same,"ERP value, etoposide + compound",[7],0.87
same,ERP = IC50(drug)MDR/IC50(drug+4)MDR,[7],0.87
"O=C1N/C(=C/c2ccccc2)C(=O)N2CCC[C@@H]12 [(S,E)-4e]","ERP value, doxorubicin + compound",[1],0.77
same,ERP = IC50(drug)MDR/IC50(drug+4)MDR,[1],0.77
same,survival rate,MRC-5 fibroblasts,117 ± 11%
same,Surviwal rate of MRC-5 at 10 microM,"MRC-5 fibroblasts; MRC-5, 10 microM (xlsx)",117_11
same,survival rate,"SW620 cells; SW620, 1 μM",96 ± 3.4%
same,survival rate,"SW620 cells; SW620, 10 μM",96 ± 2.2%
same,"ERP value, methotrexate + compound",[2],1.08
same,ERP = IC50(drug)MDR/IC50(drug+4)MDR,[2],1.08
same,survival rate,[3]; 1 μM,96 ± 2.5%
same,survival rate,[3]; 10 μM,99 ± 0.9%
same,"ERP value, cisplatin + compound",[4],1.98
same,ERP = IC50(drug)MDR/IC50(drug+4)MDR,[4],1.98
same,survival rate,[5]; 1 μM,93 ± 0.3%
same,survival rate,[5]; 10 μM,95 ± 3.4%
same,"ERP value, mitoxantrone + compound",[6],0.82
same,ERP = IC50(drug)MDR/IC50(drug+4)MDR,[6],0.82
same,"ERP value, etoposide + compound",[7],0.88
same,ERP = IC50(drug)MDR/IC50(drug+4)MDR,[7],0.88
"O=C1N/C(=C\[c-]2cccc2)C(=O)N2CCC[C@@H]12.[Fe+2].c1cc[cH-]c1 [(S,Z)-4a]","ERP value, doxorubicin + compound",[1],2.90
same,ERP = IC50(drug)MDR/IC50(drug+4)MDR,[1],2.90
same,survival rate,MRC-5 fibroblasts,106 ± 13%
same,survival rate,"SW620 cells; SW620, 1 μM",95 ± 2.2%
same,survival rate,"SW620 cells; SW620, 10 μM",88 ± 6.0%
same,pIC50,SW620 cells,< 4.00
same,"ERP value, methotrexate + compound",[2],1.17
same,ERP = IC50(drug)MDR/IC50(drug+4)MDR,[2],1.17
same,survival rate,[3]; 1 μM,93 ± 0.8%
same,survival rate,[3]; 10 μM,94 ± 3.0%
same,pIC50,[3],< 4.00
same,"ERP value, cisplatin + compound",[4],4.86
same,ERP = IC50(drug)MDR/IC50(drug+4)MDR,[4],4.86
same,survival rate,[5]; 1 μM,93 ± 0.9%
same,survival rate,[5]; 10 μM,98 ± 2.3%
same,pIC50,[5],< 4.00
same,"ERP value, mitoxantrone + compound",[6],4.61
same,ERP = IC50(drug)MDR/IC50(drug+4)MDR,[6],4.61
same,"ERP value, etoposide + compound",[7],5.61
same,ERP = IC50(drug)MDR/IC50(drug+4)MDR,[7],5.61
"O=C1N/C(=C\c2ccccc2-[c-]2cccc2)C(=O)N2CCC[C@@H]12.[Fe+2].c1cc[cH-]c1 [(S,Z)-4b]","ERP value, doxorubicin + compound",[1],2.34
same,ERP = IC50(drug)MDR/IC50(drug+4)MDR,[1],2.34
same,survival rate,MRC-5 fibroblasts,92 ± 8.7%
same,survival rate,"SW620 cells; SW620, 1 μM",91 ± 8.0%
same,survival rate,"SW620 cells; SW620, 10 μM",84 ± 13%
same,pIC50,SW620 cells,< 4.00
same,"ERP value, methotrexate + compound",[2],1.84
same,ERP = IC50(drug)MDR/IC50(drug+4)MDR,[2],1.84
same,survival rate,[3]; 1 μM,93 ± 1.2%
same,survival rate,[3]; 10 μM,99 ± 0.8%
same,pIC50,[3],< 4.00
same,"ERP value, cisplatin + compound",[4],4.53
same,ERP = IC50(drug)MDR/IC50(drug+4)MDR,[4],4.53
same,survival rate,[5]; 1 μM,97 ± 0.8%
same,survival rate,[5]; 10 μM,96 ± 3.5%
same,pIC50,[5],4.28
same,"ERP value, mitoxantrone + compound",[6],9.11
same,ERP = IC50(drug)MDR/IC50(drug+4)MDR,[6],9.11
same,"ERP value, etoposide + compound",[7],2.22
same,ERP = IC50(drug)MDR/IC50(drug+4)MDR,[7],2.22
"O=C1N/C(=C\c2ccc(-[c-]3cccc3)cc2)C(=O)N2CCC[C@@H]12.[Fe+2].c1cc[cH-]c1 [(S,Z)-4d]","ERP value, doxorubicin + compound",[1],2.86
same,ERP = IC50(drug)MDR/IC50(drug+4)MDR,[1],2.86
same,survival rate,MRC-5 fibroblasts,101 ± 7%
same,survival rate,"SW620 cells; SW620, 1 μM",97 ± 3.0%
same,survival rate,"SW620 cells; SW620, 10 μM",97 ± 2.1%
same,pIC50,SW620 cells,< 4.00
same,"ERP value, methotrexate + compound",[2],0.84
same,ERP = IC50(drug)MDR/IC50(drug+4)MDR,[2],0.84
same,survival rate,[3]; 1 μM,97 ± 0.8%
same,survival rate,[3]; 10 μM,94 ± 2.5%
same,pIC50,[3],< 4.00
same,"ERP value, cisplatin + compound",[4],2.58
same,ERP = IC50(drug)MDR/IC50(drug+4)MDR,[4],2.58
same,survival rate,[5]; 1 μM,99 ± 0.8%
same,survival rate,[5]; 10 μM,95 ± 1.5%
same,pIC50,[5],< 4.00
same,"ERP value, mitoxantrone + compound",[6],10.3
same,ERP = IC50(drug)MDR/IC50(drug+4)MDR,[6],10.3
same,"ERP value, etoposide + compound",[7],5.84
same,ERP = IC50(drug)MDR/IC50(drug+4)MDR,[7],5.84
